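Briefly, cells in 96-well plates were exposed to five compound concentrations for 48 h, and endpoints were estimated by linear interpolation. At the GI50, growth is halved. At the TGI there is no net growth.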
What was measured:
Assay in all cases: NCI-60 cell line screen, 48 h
EKVX NSCLC = tested on: EKVX NSCLC
TK-10 renal = tested on: TK-10 renal
LOX IMVI melanoma = tested on: LOX IMVI melanoma
IGROV1 ovarian = tested on: IGROV1 ovarian
KM12 colon = tested on: KM12 colon
SW-620 colon = tested on: SW-620 colon
SNB-19 CNS = tested on: SNB-19 CNS
786-0 renal = tested on: 786-0 renal
HCC-2998 colon = tested on: HCC-2998 colon
OVCAR-3 ovarian = tested on: OVCAR-3 ovarian
NCI/ADR-RES ovarian = tested on: NCI/ADR-RES ovarian
M14 melanoma = tested on: M14 melanoma
HCT-116 colon = tested on: HCT-116 colon
SF-295 CNS = tested on: SF-295 CNS
A498 renal = tested on: A498 renal
OVCAR-4 ovarian = tested on: OVCAR-4 ovarian
HS 578T breast = tested on: HS 578T breast
MDA-MB-468 breast = tested on: MDA-MB-468 breast
SK-MEL-28 melanoma = tested on: SK-MEL-28 melanoma
OVCAR-5 ovarian = tested on: OVCAR-5 ovarian
SN12C renal = tested on: SN12C renal
CCRF-CEM leukemia = tested on: CCRF-CEM leukemia
SK-MEL-5 melanoma = tested on: SK-MEL-5 melanoma
T-47D breast = tested on: T-47D breast
MALME-3M melanoma = tested on: MALME-3M melanoma
MCF7 breast = tested on: MCF7 breast
COLO 205 colon = tested on: COLO 205 colon
HOP-62 NSCLC = tested on: HOP-62 NSCLC
NCI-H226 lung = tested on: NCI-H226 lung
SK-OV-3 ovarian = tested on: SK-OV-3 ovarian
U251 CNS = tested on: U251 CNS
CAKI-1 renal = tested on: CAKI-1 renal
MDA-MB-435 = tested on: MDA-MB-435
SF-268 CNS = tested on: SF-268 CNS
SK-MEL-2 melanoma = tested on: SK-MEL-2 melanoma
PC-3 prostate = tested on: PC-3 prostate
NCI-H522 lung = tested on: NCI-H522 lung
NCI-H23 lung = tested on: NCI-H23 lung
HL-60(TB) leukemia = tested on: HL-60(TB) leukemia
RPMI-8226 leukemia = tested on: RPMI-8226 leukemia
UO-31 renal = tested on: UO-31 renal
OVCAR-8 ovarian = tested on: OVCAR-8 ovarian
UACC-257 melanoma = tested on: UACC-257 melanoma
RXF 393 renal = tested on: RXF 393 renal
SR leukemia = tested on: SR leukemia
HCT-15 colon = tested on: HCT-15 colon
DU-145 prostate = tested on: DU-145 prostate
MOLT-4 leukemia = tested on: MOLT-4 leukemia
UACC-62 melanoma = tested on: UACC-62 melanoma
ACHN renal = tested on: ACHN renal
A549 NSCLC = tested on: A549 NSCLC
NCI-H460 lung = tested on: NCI-H460 lung
K-562 leukemia = tested on: K-562 leukemia
HOP-92 NSCLC = tested on: HOP-92 NSCLC
MDA-MB-231 breast = tested on: MDA-MB-231 breast
BT-549 breast = tested on: BT-549 breast
SF-539 CNS = tested on: SF-539 CNS
HT29 colon = tested on: HT29 colon

CC(=O)c1ccc(Nc2nc(SC(C)C)nc(-c3ccccc3)c2C#N)cc1
GI50 (EKVX NSCLC): 4.71 µM
TGI (EKVX NSCLC): > 100 µM
GI50 (TK-10 renal): 2.54 µM
TGI (TK-10 renal): 5.67 µM
GI50 (LOX IMVI melanoma): 3.51 µM
TGI (LOX IMVI melanoma): > 100 µM
GI50 (IGROV1 ovarian): 8.02 µM
TGI (IGROV1 ovarian): > 100 µM
GI50 (KM12 colon): > 100 µM
TGI (KM12 colon): > 100 µM
GI50 (SW-620 colon): 3.77 µM
TGI (SW-620 colon): 64.1 µM
GI50 (SNB-19 CNS): 2.05 µM
TGI (SNB-19 CNS): 4.63 µM
GI50 (786-0 renal): 2.07 µM
TGI (786-0 renal): 4.81 µM
GI50 (HCC-2998 colon): 15.8 µM
TGI (HCC-2998 colon): > 100 µM
GI50 (OVCAR-3 ovarian): 40 µM
TGI (OVCAR-3 ovarian): > 100 µM
GI50 (NCI/ADR-RES ovarian): 2.82 µM
TGI (NCI/ADR-RES ovarian): 10.6 µM
GI50 (M14 melanoma): 21.9 µM
TGI (M14 melanoma): > 100 µM
GI50 (HCT-116 colon): 1.34 µM
TGI (HCT-116 colon): 6.69 µM
GI50 (SF-295 CNS): 1.4 µM
TGI (SF-295 CNS): 3.25 µM
GI50 (A498 renal): 24.2 µM
TGI (A498 renal): 71.9 µM
GI50 (OVCAR-4 ovarian): 5.07 µM
TGI (OVCAR-4 ovarian): > 100 µM
GI50 (HS 578T breast): 3.09 µM
TGI (HS 578T breast): 23.8 µM
GI50 (MDA-MB-468 breast): 5.08 µM
TGI (MDA-MB-468 breast): 50.2 µM
GI50 (SK-MEL-28 melanoma): 16.9 µM
TGI (SK-MEL-28 melanoma): > 100 µM
GI50 (OVCAR-5 ovarian): 21.2 µM
TGI (OVCAR-5 ovarian): > 100 µM
GI50 (SN12C renal): 11.4 µM
TGI (SN12C renal): > 100 µM
GI50 (CCRF-CEM leukemia): > 100 µM
TGI (CCRF-CEM leukemia): > 100 µM
GI50 (SK-MEL-5 melanoma): 5.03 µM
TGI (SK-MEL-5 melanoma): 20.3 µM
GI50 (T-47D breast): 81.6 µM
TGI (T-47D breast): > 100 µM
GI50 (MALME-3M melanoma): 14.1 µM
TGI (MALME-3M melanoma): > 100 µM
GI50 (MCF7 breast): 4.74 µM
TGI (MCF7 breast): > 100 µM
GI50 (COLO 205 colon): 15.6 µM
TGI (COLO 205 colon): > 100 µM
GI50 (HOP-62 NSCLC): 2.13 µM
TGI (HOP-62 NSCLC): 5.38 µM
GI50 (NCI-H226 lung): 2.54 µM
TGI (NCI-H226 lung): 7.14 µM
GI50 (SK-OV-3 ovarian): 5.02 µM
TGI (SK-OV-3 ovarian): 38.9 µM
GI50 (U251 CNS): 1.32 µM
TGI (U251 CNS): 4.26 µM
GI50 (CAKI-1 renal): 2.82 µM
TGI (CAKI-1 renal): 13.2 µM
GI50 (MDA-MB-435): 5.06 µM
TGI (MDA-MB-435): > 100 µM
GI50 (SF-268 CNS): 5.35 µM
TGI (SF-268 CNS): > 100 µM
GI50 (SK-MEL-2 melanoma): > 100 µM
TGI (SK-MEL-2 melanoma): > 100 µM
GI50 (PC-3 prostate): 8.98 µM
TGI (PC-3 prostate): > 100 µM
GI50 (NCI-H522 lung): 8.3 µM
TGI (NCI-H522 lung): > 100 µM
GI50 (NCI-H23 lung): 2.46 µM
TGI (NCI-H23 lung): 11.2 µM
GI50 (HL-60(TB) leukemia): > 100 µM
TGI (HL-60(TB) leukemia): > 100 µM
GI50 (RPMI-8226 leukemia): > 100 µM
TGI (RPMI-8226 leukemia): > 100 µM
GI50 (UO-31 renal): 2.03 µM
TGI (UO-31 renal): 4.94 µM
GI50 (OVCAR-8 ovarian): 3.29 µM
TGI (OVCAR-8 ovarian): > 100 µM
GI50 (UACC-257 melanoma): > 100 µM
TGI (UACC-257 melanoma): > 100 µM
GI50 (RXF 393 renal): 2.08 µM
TGI (RXF 393 renal): 7.48 µM
GI50 (SR leukemia): > 100 µM
TGI (SR leukemia): > 100 µM
GI50 (HCT-15 colon): 7.61 µM
TGI (HCT-15 colon): > 100 µM
GI50 (DU-145 prostate): 17.6 µM
TGI (DU-145 prostate): > 100 µM
GI50 (MOLT-4 leukemia): > 100 µM
TGI (MOLT-4 leukemia): > 100 µM
GI50 (UACC-62 melanoma): 43.8 µM
TGI (UACC-62 melanoma): > 100 µM
GI50 (ACHN renal): 2.15 µM
TGI (ACHN renal): 5.17 µM
GI50 (A549 NSCLC): 72.9 µM
TGI (A549 NSCLC): > 100 µM
GI50 (NCI-H460 lung): 3.53 µM
TGI (NCI-H460 lung): > 100 µM
GI50 (K-562 leukemia): 9.17 µM
TGI (K-562 leukemia): > 100 µM
GI50 (HOP-92 NSCLC): 1.91 µM
TGI (HOP-92 NSCLC): 7.86 µM
GI50 (MDA-MB-231 breast): 2.9 µM
TGI (MDA-MB-231 breast): 8.23 µM
GI50 (BT-549 breast): 24.8 µM
TGI (BT-549 breast): > 100 µM
GI50 (SF-539 CNS): 2.17 µM
TGI (SF-539 CNS): 7.69 µM
GI50 (HT29 colon): 3.81 µM
TGI (HT29 colon): > 100 µM

Reference: PubChem BioAssay (NCI)
